Results taken from BindingDB's records for doi:10.1021/jm0409019 (Institute of Chemical Sciences and Engineering, 2005).

Legend:
[1] = target: alpha-mannosidase (Canavalia ensiformis); assay: Concentration of compound inhibiting alpha-Mannosidase isolated from Jack bean
[2] = target: alpha-mannosidase (Canavalia ensiformis); assay: Binding affinity towards alpha-Mannosidase isolated from Jack bean
[3] = target: alpha-mannosidase (Canavalia ensiformis); assay: Inhibition of alpha-Mannosidase isolated from Jack bean
[4] = target: alpha-mannosidase (Canavalia ensiformis); assay: Binding affinity towards alpha-Mannosidase isolated from jack bean

SMILES | IC50 [1] [µM] | Ki [2] [µM] | IC50 [3] [µM] | Ki [4] [µM]
O[C@H]1[C@@H](O)CN[C@@H]1CN[C@@H](c1ccccc1)[C@H](O)c1ccccc1 [(2R,3R,4S)-2-[((R)-Phenyl-1-(S)-2-hydroxy-2-phenyl-ethylamino)-methyl]-pyrrolidine-3,4-diol] | 128 |  |  | 
O[C@H]1[C@@H](O)CN[C@@H]1CN[C@H](c1ccccc1)[C@@H](O)c1ccccc1 [(2R,3R,4S)-2-[((S)-Phenyl-1-(R)-2-hydroxy-2-phenyl-ethylamino)-methyl]-pyrrolidine-3,4-diol] | 110 |  |  | 
O[C@H]1[C@@H](O)CN[C@@H]1CNC(COCc1ccccc1)c1ccccc1 (stereo partly drawn) [(2R,3R,4S)-2-[((R)-2-Benzyloxy-1-phenyl-ethylamino)-methyl]-pyrrolidine-3,4-diol] |  |  | 58 | 16

Continued by falling IC50 [1], values first:

IC50 [1] [µM] | Ki [2] [µM] | IC50 [3] [µM] | Ki [4] [µM] | SMILES
89 |  |  |  | O=C(NCC(NC[C@H]1NC[C@H](O)[C@@H]1O)c1ccccc1)c1cccc(Br)c1 (stereo partly drawn) [3-Bromo-N-{2-[((2R,3R,4S)-3,4-dihydroxy-pyrrolidin-2-ylmethyl)-amino]-2-phenyl-ethyl}-benzamide]
17 | 2.3 |  |  | O[C@H]1[C@@H](O)CN[C@@H]1CNC1CCc2ccccc21 (stereo partly drawn) [(2R,3R,4S)-2-((R)-Indan-1-ylaminomethyl)-pyrrolidine-3,4-diol]
4.2 | 1.35 |  |  | OCC(NC[C@H]1N[C@H](CO)[C@H](O)[C@@H]1O)c1ccccc1 (stereo partly drawn) [(2R,3S,4R,5R)-2-Hydroxymethyl-5-[((R)-2-hydroxy-1-phenyl-ethylamino)-methyl]-pyrrolidine-3,4-diol]
